According to patent publication US7674586B2, “Methods of identifying modulators of L-glutamate-gated chloride channel proteins from Rhipicephalus sanguineus” (Merial Limited, priority 2000, dated 2010):

What was measured:
[1] = system: RsGluCl1 (T12); assay: Two-microelectrode voltage clamp of Xenopus oocytes injected with RsGluCl1 T12 RNA; assay type: cell-based, Rhipicephalus sanguineus; conditions: for channel activation / current in response (qualitative): RsGluCl1 expressed in Xenopus oocytes
Procedure: (§1) Xenopus laevis oocytes were prepared and injected using standard methods previously described [Arena, J. P., Liu, K. K., Paress, P. S. & Cully, D. P. Mol. Pharmacol. 40, 368-374 (1991); Arena, J. P., Liu, K. K., Paress, P. S., Schaeffer, J. M. & Cully, D. F., Mol. Brain. Res. 15, 339-348 (1992)]. Adult female Xenopus laevis were anesthetized with 0.17% tricaine methanesulfonate and the ovaries were surgically removed and placed in a solution consisting of (mM): NaCl 82.5, KCl 2, MgCl2 1, HEPES 5, NaPyruvate 2.5, Penicillin G. 100,000 units/L, Streptomycin Sulfate 1000 mg/L, pH 7.5 (Mod. OR-2). Ovarian lobes were broken open, rinsed several times in Mod. OR-2, and incubated in 0.2% collagenase (Sigma, Type1) in Mod. OR-2 at room temperature with gentle shaking. After 1 hour the collagenase solution was renewed and the oocytes were incubated for an additional 30-90 min until approximately 50% of the oocytes were released from the ovaries. Stage V and VI oocytes were selected and placed in media containing (mM): NaCl 96, KCl 2, MgCl2 1, CaCl2 1.8, HEPES 5, NaPyruvate 2.5, theophylline 0.5, gentamicin […], pH 7.5 (ND-96) for 16-24 hours before injection. Oocytes were injected with 50 nl of Dv8, Dv9, RsGluCl1 or RsGluCl2 RNA at a concentration of 0.2 mg/ml. Oocytes were incubated at 18° C. for 1-6 days in ND-96 before recording.
(§2) Recordings were made at room temperature in modified ND-96 consisting of (mM: NaCl 96, MgCl2 1, CaCl2 0.1, BaCl2 3.5, HEPES 5, pH 7.5. Oocytes were voltage clamped using a Dagan CA1 two microelectrode amplifier (Dagan Corporation, Minneapolis, Minn.) interfaced to a Macintosh 7100/80 computer. The current passing electrode was filled with 0.7 M KCl, 1.7 M KCitrate, and the voltage recording electrode was filled with 1 M KCl. Throughout the experiment oocytes were superfused with modified ND-96 (control solution) or with ND-96 containing potential channel activators and blockers at a rate of approximately 3 ml/min. Data were acquired at 100 Hz and filtered at 33.3 Hz using Pulse software from HEKA Elektronik (Lambrecht, Germany). All recordings were performed from a holding potential of either 0 or −30 mV.
cRNA was synthesized from the RsGluCl 1S clone T12 and expressed in Xenopus oocytes. The channel encoded by RsGluCl-1 is a glutamate-gated chloride channel activated by IVM-PO4.

[2] = system: RsGluCl2; assay: Two-microelectrode voltage clamp of Xenopus oocytes injected with RsGluCl2 RNA; assay type: cell-based, Rhipicephalus sanguineus; conditions: for channel activation / current in response (qualitative): RsGluCl2 expressed in Xenopus oocytes as a single functional channel
Procedure: as §1
as §2, with “All recordings were performed from a holding potential of either 0 or −30 mV.” left out

Row | Compound | current produced on application ([1]; 100 nM, compared with the glutamate-activated current, RsGluCl1 T12 in Xenopus oocytes) | concentration at which current activation was maximal ([2]; RsGluCl2 expressed in Xenopus oocytes, FIG. 11) | concentration at which current activation was maximal ([1]; RsGluCl1 T12 RNA in Xenopus oocytes, FIG. 10) | channel activation / current in response (qualitative) [1] | channel activation / current in response (qualitative) [2]
1 | CC[C@H](C)[C@H]1O[C@]2(CC[C@@H]1C)C[C@@H]1C[C@@H](C/C=C(\C)[C@@H](O[C@H]3C[C@H](OC)[C@@H](O[C@H]4C[C@H](OC)[C@@H](O)[C@H](C)O4)[C@H](C)O3)[C@@H](C)/C=C/C=C3\CO[C@@H]4[C@H](O)C(C)=C[C@@H](C(=O)O1)[C@]34O)O2 [ivermectin, 22,23-dihydro-avermectin B1a] | produces a similar although non-inactivating current | ~1 µM |  |  | 
2 | N[C@@H](CCC(=O)O)C(=O)O [glutamate] |  |  | 10 µM | exhibits a current | failed to activate a current
3 | ivermectin phosphate |  |  |  | activated | exhibit a current
